Values of other authors as cited in US20150174160A1, “METHODS FOR TREATING, DIAGNOSING AND/OR MONITORING PROGRESSION OF OXO ASSOCIATED STATES” (priority 2012, published 2015).

Settings: for 2 years in humans

safe dose: up to 2 grams daily
Compound: O=C(O)CCCCC1CCSS1 (stereo not drawn) [ALA, alpha-lipoic acid]
